{"source": "patent US5892045A", "about": "“4-aryl-3-hydroxyquinolin-2-one derivatives as ion channel modulators” (priority 1997, dated 1999)", "data": [{"system": "cloned mammalian (mSlo or hSlo) BK channels expressed in Xenopus oocytes", "assay": "Increase of cloned BK-mediated outward current, two-electrode voltage clamp in Xenopus oocytes (IBTX-sensitive current)", "assay_type": "cell-based", "details": "at 20 μM expressed as percent of controls; at least 5 oocytes", "description": "The ability of compounds described in the present invention to open BK channels and increase whole-cell outward (K^+) BK-mediated currents was assessed under voltage-clamp conditions by determining their ability to increase cloned mammalian (mSlo or hSlo) BK-mediated outward current heterologously expressed in Xenopus oocytes [Butler, A., et al., Science, 261: 221-224 (1993); and Dworetzky, S. I., et al., Mol. Brain Res., 27: 189-193 (1994)]. The two BK constructs employed represent nearly structurally identical homologous proteins, and have proven to be pharmacologically identical in our tests. […] The relative contribution of BK channels current to total outward current was determined by subtraction of the current remaining in the presence of IBTX (non-BK current) from the current profiles obtained in all other experimental conditions (control, drug, and wash). […] All compounds were tested in at least 5 oocytes and are reported at the single concentration of 20 μM; the effect of the selected compounds of Formula I on BK current was expressed as the percent of control IBTX-sensitive current and is listed in Table I. Recordings were accomplished using standard two-electrode voltage clamp techniques [Stuhmer, W., et al., Methods in Enzymology, Vol. 207: 319-339 (1992)]; voltage-clamp protocols consisted of 500-750 ms duration step depolarization from a holding potential of -60 mV to +140 mV in 20 mV steps. The experimental media (modified Barth's solution) consisted of (in mM): NaCl (88), NaHCO3 (2.4), KCl (1.0), HEPES (10), MgSO4 (0.82), Ca(NO3)2 (0.33), CaCl2 (0.41); pH 7.5.", "values": [{"compound": "O=c1[nH]c2cc(C(F)(F)F)ccc2c(-c2cc(Br)ccc2O)c1O", "note": "[Example 11]", "BK Current (percent of control IBTX-sensitive current)": "++ (>150%)"}, {"compound": "O=c1[nH]c2cc(Cl)ccc2c(-c2cc(Cl)ccc2O)c1O", "note": "[Example 15]", "BK Current (percent of control IBTX-sensitive current)": "++ (>150%)"}, {"compound": "O=c1[nH]c2cc(Cl)cc(Cl)c2c(-c2cc(Cl)ccc2O)c1O", "note": "[Example 2, 5,7-Dichloro-4-(5-chloro-2-hydroxyphenyl)-3-hydroxy-2(1H)-quinolinone]", "BK Current (percent of control IBTX-sensitive current)": "++ (>150%)"}, {"compound": "O=c1[nH]c2cc(C(F)(F)F)ccc2c(-c2cc(Cl)ccc2O)c1O", "note": "[Example 10]", "BK Current (percent of control IBTX-sensitive current)": "++ (>150%)"}, {"compound": "O=c1[nH]c2ccccc2c(-c2cc(Cl)ccc2O)c1O", "note": "[Example 8]", "BK Current (percent of control IBTX-sensitive current)": "+ (100-150%)"}, {"compound": "O=c1[nH]c2cc(Cl)cc(Cl)c2c(-c2cc(Br)ccc2O)c1O", "note": "[Example 12]", "BK Current (percent of control IBTX-sensitive current)": "++ (>150%)"}, {"compound": "O=c1[nH]c2ccccc2c(-c2cc(Br)ccc2O)c1O", "note": "[Example 6]", "BK Current (percent of control IBTX-sensitive current)": "+ (100-150%)"}, {"compound": "Cn1c(=O)c(O)c(-c2cc(Cl)ccc2O)c2c(Cl)cc(Cl)cc21", "note": "[Example 18]", "BK Current (percent of control IBTX-sensitive current)": "++ (>150%)"}, {"compound": "COc1ccc(Br)cc1-c1c(O)c(=O)[nH]c2cc(Cl)cc(Cl)c12", "note": "[Example 4]", "BK Current (percent of control IBTX-sensitive current)": "++ (>150%)"}, {"compound": "O=c1[nH]c2ccc(Br)cc2c(-c2cc(Br)ccc2O)c1O", "note": "[Example 19]", "BK Current (percent of control IBTX-sensitive current)": "++ (>150%)"}, {"compound": "O=c1[nH]c2ccc(Cl)cc2c(-c2cc(Cl)ccc2O)c1O", "note": "[Example 13]", "BK Current (percent of control IBTX-sensitive current)": "+ (100-150%)"}, {"compound": "O=c1[nH]c2ccc([N+](=O)[O-])cc2c(-c2cc(Br)ccc2O)c1O", "note": "[Example 9]", "BK Current (percent of control IBTX-sensitive current)": "++ (>150%)"}, {"compound": "O=c1[nH]c2ccc(C(F)(F)F)cc2c(-c2cc(Br)ccc2O)c1O", "note": "[Example 17]", "BK Current (percent of control IBTX-sensitive current)": "++ (>150%)"}, {"compound": "O=c1[nH]c2ccc(C(F)(F)F)cc2c(-c2cc(Cl)ccc2O)c1O", "note": "[Example 16]", "BK Current (percent of control IBTX-sensitive current)": "++ (>150%)"}, {"compound": "O=c1[nH]c2cccc(Cl)c2c(-c2cc(Cl)ccc2O)c1O", "note": "[Example 14]", "BK Current (percent of control IBTX-sensitive current)": "+ (100-150%)"}, {"compound": "O=c1[nH]c2ccc(Br)cc2c(-c2cc(Cl)ccc2O)c1O", "note": "[Example 20]", "BK Current (percent of control IBTX-sensitive current)": "++ (>150%)"}, {"compound": "COc1ccc(Cl)cc1-c1c(O)c(=O)[nH]c2cc(Cl)ccc12", "note": "[Example 5]", "BK Current (percent of control IBTX-sensitive current)": "+ (100-150%)"}, {"compound": "O=c1[nH]c2c(Cl)cccc2c(-c2cc(Cl)ccc2O)c1O", "note": "[Example 21]", "BK Current (percent of control IBTX-sensitive current)": "+ (100-150%)"}, {"compound": "COc1ccc(Br)cc1-c1c(O)c(=O)[nH]c2ccc([N+](=O)[O-])cc12", "note": "[Example 3]", "BK Current (percent of control IBTX-sensitive current)": "+ (100-150%)"}, {"compound": "Cn1c(=O)c(O)c(-c2cc(Br)ccc2O)c2ccccc21", "note": "[Example 7]", "BK Current (percent of control IBTX-sensitive current)": "+ (100-150%)"}]}, {"system": "BK channel", "assay": "not given", "details": "very limited electrophysiological experiments; Laurent 1993; cited from earlier work", "values": [{"compound": "CNc1nc(Br)cn2cc(C#N)nc12", "note": "[SCA-40, 6-Bromo-8-(methylamino) imidazo[1,2-a]pyrazine-2-carbonitrile]", "BK channel opening activity": "BK channel opener"}]}, {"system": "Ca^2+ -activated potassium channels", "assay": "not given", "details": "outside-out patches, myelinated nerve fibers; Koh 1994; cited from earlier work", "values": [{"compound": "O=C(CCc1ccc(O)cc1)c1c(O)cc(O)cc1O", "note": "[Phloretin]", "open probability of Ca^2+ -activated potassium channels": "increase the open probability"}]}, {"system": "BK channel", "assay": "not given", "details": "Galvez 1990; cited from earlier work", "values": [{"compound": "iberiotoxin: specific and potent BK channel-blocking toxin iberiotoxin (IBTX) (QFTDVDCSVSKECWSVCKDLFGVDRGKCMGKKCRCYQ; UniProt P24663 1-37, looked up)", "BK channel block": "specific and potent BK channel-blocking toxin"}]}]}
